Source: paper PMC10541198, “Specific quinone reductase 2 inhibitors reduce metabolic burden and reverse Alzheimer’s disease phenotype in mice” (The Journal of Clinical Investigation, 2023)
Values joined by “and” are separate entries in the source; they are usually repeats but may differ in a detail not shown here. Equal values may be shown once.

Tested on: HCT116 cells
Experiment: H2DCFDA detection of cellular ROS
Type: cell-based, human
Details: 20 μM, 3 hour, WT HCT116
Method: To establish direct target engagement and cell membrane permeability, a cellular thermal shift assay (CETSA) was carried out, using leading QR2is YB’s-537, 800, and 808. Following a 1 hour preincubation with 5 μM of the QR2is or vehicle, thermal aggregation curves (Taggs) of QR2 expressed in HEK293T were measured in increasing temperatures. All QR2is increased QR2 thermal stability compared with vehicle (Supplemental Figure 2A). Based on the Tagg curves we selected 73°C for isothermal dose-response fingerprint (IDTRF) experiments (Supplemental Figure 2B). The ITDRF allowed the relative quantification of the binding of each of the QR2is to QR2, measured as the EC50 (Figure 3A). […] We evaluated the safety of the QR2is using cell toxicity and viability assays. […] Cell viability was assessed by XTT assay in HEK239T cells, using a dose response, with 3- or 24-hour incubations of the leading QR2is. […] We then assessed WT HCT116 cells by immunoblot (Supplemental Figure 2, C and D), after being treated with YB-800 (2 μM) for 4 consecutive days. […]
The cells wer e har ves t ed a nd resuspended in 1% cl ear m e di um ( DM EM – with no phenol red, suppl em ent ed with 1% FBS, 1% L-Glutamine and 1% Penicillin-Streptomycin). […] The plate wa s then incubated in the dark at 37°C f or 3 h, before reading in a Tecan M200 Pro florescence microplate reader, using wavelengths Ex/Em = 485 nm / 535 nm . […]

SMILES: Cc1ccc(-c2cn3cccc(C)c3n2)cc1S(=O)(=O)N1CCC(C)CC1 [YB-800]
- ROS levels (replicates): 0.005141 and -0.1557 and -0.2104 and -0.08593 and -0.04485
